Source: PMC5309242, “Substrate-Dependence of Competitive Nucleotide Pyrophosphatase/Phosphodiesterase1 (NPP1) Inhibitors” (Frontiers in Pharmacology, 2017)
Where two headings read alike, the source gives them in different places. Marks after values point to notes of the source that are not given here.

Experiments:
NPP1 = conditions: cited from earlier work; for Ki: vs. ATP as a substrate, ref Iqbal et al., 2008
human NPP1 [1] = target: T1, human NPP1 (Homo sapiens, UniProt P22413); test: Inhibition constants and mechanism of inhibition (Hanes-Woolf plots) compared across all investigated substrates; format: biochemical; conditions: for Inhibition type: Hanes-Woolf plots, same type vs. all three substrates (ATP, p-Nph-5′-TMP, p-Nph-5′-AMP)
T1 construct: Human recombinant soluble NPP1 (Val191—Leu591) expressed in murine myeloma NS0 cells; His-tag (N); purchased R&D Systems GmbH (Wiesbaden, Germany); host or cells: murine myeloma NS0 cells
T1 sequence (P22413 191-591): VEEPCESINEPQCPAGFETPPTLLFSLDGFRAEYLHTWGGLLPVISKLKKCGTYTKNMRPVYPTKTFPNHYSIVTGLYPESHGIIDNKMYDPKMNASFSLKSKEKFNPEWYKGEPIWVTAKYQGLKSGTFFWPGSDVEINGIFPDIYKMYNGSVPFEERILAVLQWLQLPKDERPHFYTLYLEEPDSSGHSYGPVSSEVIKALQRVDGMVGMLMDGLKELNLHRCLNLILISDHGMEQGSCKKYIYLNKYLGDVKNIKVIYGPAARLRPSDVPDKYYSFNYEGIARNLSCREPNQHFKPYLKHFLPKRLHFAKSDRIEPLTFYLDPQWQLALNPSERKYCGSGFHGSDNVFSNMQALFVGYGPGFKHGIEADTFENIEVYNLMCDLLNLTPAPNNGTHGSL
Procedure: (§2) The instrumentations and operation conditions for the experiments were the same as those described in the Sections Determination of Kinetic Parameters of Artificial Substrates and Determination of Concentration-Dependent Inhibition Curves. Each analysis was performed in three separate experiments. The inhibition type of each inhibitor was then evaluated graphically from the Hanes-Woolf plots. For the determination of the (α)Ki-values the slope of the reciprocal lines from the Hanes-Woolf plot were plotted as a function of inhibitor concentrations using Prism 5.0.

human NPP1 [2] = target: T1, human NPP1; test: NPP1 inhibition vs. natural substrate ATP (CE, AMP quantified by UV at 260 nm); format: biochemical
Procedure: Human recombinant soluble NPP1 (Val191—Leu591) expressed in murine myeloma NS0 cells was purchased from R&D Systems GmbH (Wiesbaden, Germany, purity > 95%, purified by using N-terminal His-tag).
For the natural substrate ATP, the enzyme inhibition assays were performed in 10 mM CHES buffer containing 400 μM of substrate along with different inhibitor concentrations. Incubation and operation conditions were the same as described above with artificial substrates. The analysis was performed by CE and the amounts of AMP produced were quantified by their UV absorption at 260 nm. Each analysis was repeated twice in three separate experiments.
Each analysis was performed in three separate experiments. The inhibition type of each inhibitor was then evaluated graphically from the Hanes-Woolf plots. For the determination of the (α)Ki-values the slope of the reciprocal lines from the Hanes-Woolf plot were plotted as a function of inhibitor concentrations using Prism 5.0.

human NPP1 [3] = target: T1, human NPP1; test: NPP1 inhibition vs. artificial substrate p-Nph-5′-TMP (p-nitrophenolate at 400 nm); format: biochemical
Procedure: (§3) For testing vs. both synthetic substrates, p-Nph-5′-TMP and p-Nph-5′-AMP, solutions containing different concentrations of each inhibitor were prepared with 10 mM CHES buffer (See Section Determination of Kinetic Parameters of Artificial Substrates) containing 400 μM p-Nph-5′-TMP, or p-Nph-5′-AMP, respectively, in a final volume of 100 μl. […] Therefore, measurements were not performed colorimetrically, but by capillary electrophoresis (CE) with DAD detection of the formed p-nitrophenolate at 400 nm. The CE instrumentation and operation conditions were as follows: The CE instrumentation and operating conditions were as follows: P/ACE MDQ capillary electrophoresis system (Beckman Instruments, Fullerton, CA, USA) with a DAD detection system, polyacrylamide-coated capillaries of 50 cm effective length × 50 μm (id) obtained from CS Chromatographie GmbH (Langerwehe, Germany), 100 mM phosphate buffer (pH 6.5) as running buffer, electrokinetic injection (−6 kV, 60 s), separation voltage of −20 kV. The measurement was performed twice in three different experiments. Data collection and peak area analysis were performed by the 32 Karat software obtained from Beckman Coulter (Fullerton, CA, USA). The IC50-values of test compounds for each substrate were calculated by plotting of three independent experiments using the program Prism 5.0 (GraphPad software, San Diego, CA, USA).
as §2

human NPP1 [4] = target: T1, human NPP1; test: NPP1 inhibition vs. new artificial substrate p-Nph-5′-AMP (p-nitrophenolate at 400 nm); format: biochemical
Procedure: as §3, §2

human NPP1 [5] = target: T1, human NPP1; test: Enzyme kinetic parameters of NPP1 substrates; format: biochemical; conditions: for kcat: substrate of human NPP1, pH 9.0, 37°C
Procedure: (§1) Enzyme kinetic parameters were measured for p-Nph-5′-TMP and p-Nph-5′-AMP, both being artificial substrates of human NPP1. Solutions with different concentrations of both substrates (ranging from 1.0 to 500 μM) were prepared in 10 mM CHES buffer (in mM: 1 MgCl2, 2 CaCl2, 10 CHES, pH 9.0) and added in a final volume of 100 μl to 96-well-plates. The enzyme reactions were initiated by the addition of 20 ng of human NPP1 (for p-Nph-5′-TMP), or 75 ng of human NPP1 (for p-Nph-5′-AMP). The mixture was incubated at 37°C for 15 min (p-Nph-5′-TMP), or 30 min (for p-Nph-5′-AMP), respectively, and subsequently terminated by the addition of 20 μl of 1.0 N aqueous NaOH solution. The amounts of p-nitrophenolate liberated were measured at 400 nm. Each analysis was repeated twice in three separate experiments.

human NPP1 [6] = target: T1, human NPP1; design: method as in Lee and Müller, 2014; conditions: ref Lee and Müller, 2014; cited from earlier work
human NPP1 [7] = target: T1, human NPP1; design: method as in Chang et al., 2014; conditions: more potent vs. p-Nph-5′-TMP than vs. ATP; ref Chang et al., 2014; cited from earlier work
human NPP1 [8] = target: T1, human NPP1; design: method as in Namasivayam et al., 2017; conditions: substrate of NPP1; ref Namasivayam et al., 2017; cited from earlier work
human NPP1 [9] = target: T1, human NPP1; conditions: read-out: Ki, ATP; substrate ATP; mean ± SEM; ref Lee et al., 2015; cited from earlier work
[10] = substrate: Nc1ncnc2c1ncn2[C@@H]1O[C@H](COP(=O)(O)Oc2ccc([N+](=O)[O-])cc2)[C@@H](O)[C@H]1O; test: Enzyme kinetic parameters of NPP1 substrates; format: biochemical; conditions: other: substrate of human NPP1, pH 9.0, 37°C
Procedure: as §1

[11] = substrate: Cc1cn([C@H]2C[C@H](O)[C@@H](COP(=O)(O)Oc3ccc([N+](=O)[O-])cc3)O2)c(=O)[nH]c1=O; test: Enzyme kinetic parameters of NPP1 substrates; format: biochemical; conditions: other: substrate of human NPP1, pH 9.0, 37°C
Procedure: as §1

[12] = substrate p-Nph-5′-TMP, mean ± SD of three independent experiments, read-out: Ki ± SD, p-Nph-5′-TMP
[13] = substrate p-Nph-5′-AMP, mean ± SD of three independent experiments, read-out: Ki ± SD, p-Nph-5′-AMP

For `Nc1c(S(=O)(=O)O)cc(Nc2ccc(Nc3nc(Cl)nc(Nc4cccc(S(=O)(=O)O)c4)n3)c(S(=O)(=O)O)c2)c2c1C(=O)c1ccccc1C2=O` [reactive blue 2], the Ki (NPP1) is listed as 0.52 µM, the Inhibition type (human NPP1 [1]) is listed as “Non-competitive” and the Ki (human NPP1 [2]) is listed as 0.141 ± 0.031 µM. It also gave a Ki (human NPP1 [3]) of 0.198 ± 0.034 µM and a Ki (human NPP1 [4]) of 0.176 ± 0.025 µM.

For `Cc1cn([C@H]2C[C@H](O)[C@@H](COP(=O)(O)Oc3ccc([N+](=O)[O-])cc3)O2)c(=O)[nH]c1=O` [p-Nph-5′-TMP, p-Nitrophenyl 5′-thymidine monophosphate], the “kcat-value fold higher than that for p-Nph-5′-AMP” value (human NPP1 [5]; compared to p-Nph-5′-AMP) was ~10 fold and the kcat (human NPP1 [5]) was 22.3 s⁻¹.

For `Nc1ncnc2c1ncn2[C@@H](C=O)O[C@@H](C=O)COP(=O)(O)OP(=O)(O)O` [dialADP, Adenosine 5′-diphosphate-2′,3′-dialdehyde], the “manner of NPP1 inhibition” value (human NPP1 [6]) is listed as “non-competitive”, the Ki (human NPP1 [1]) is listed as ~5 µM and the Inhibition type (human NPP1 [1]) is listed as “Non-competitive”. It also gave a Ki (human NPP1 [2]) of 5.62 ± 1.23 µM, a Ki (human NPP1 [3]; [12]) of 5.03 ± 0.15 µM and a Ki (human NPP1 [4]; [13]) of 5.09 ± 1.72 µM.

In the case of `CSc1nc(N)c2ncn([C@@H]3O[C@H](COP(=O)(O)OP(=O)(O)O)[C@@H](O)[C@H]3O)c2n1` [2-MeSADP, 2-methylthio-adenosine 5′-diphosphate], the Inhibition type (human NPP1 [1]) is reported as “Competitive”, the Ki (human NPP1 [2]) is reported as 32.8 ± 7 µM and the Ki (human NPP1 [3]; [12]) is reported as 2.18 ± 0.29 µM. For the same molecule, the Ki (human NPP1 [4]; [13]) was 35.4 ± 6.4 µM.

In the case of `CSc1nc(N)c2ncn([C@@H]3O[C@H](COP(=O)(O)OP(=O)(O)OP(=O)(O)O)[C@@H](O)[C@H]3O)c2n1` [2-MeSATP, 2-methylthio-adenosine 5′-triphosphate], the Inhibition type (human NPP1 [1]) is reported as “Competitive”, the Ki (human NPP1 [2]) is reported as 25.3 ± 5.9 µM and the Ki (human NPP1 [3]; [12]) is reported as 4.47 ± 0.66 µM. The Ki (human NPP1 [4]; [13]) was 39.9 ± 6.9 µM.

For `COc1ccc(NC(=O)CSc2nc3c(N)ncnc3[nH]2)cc1OC` [PZB08513136A, 2-(6-Amino-9H-purin-8-ylthio)-N-(3,4-dimethoxyphenyl)acetamide], the “fold difference in potency, p-Nph-5′-TMP vs. ATP as substrate” value (human NPP1 [7]) is given as “more than 100 fold”, the Inhibition type (human NPP1 [1]) is given as “Competitive” and the Ki (human NPP1 [4]; [13]) is given as 14.9 ± 0.8 µM.

In the case of `Nc1ncnc2c1ncn2[C@@H]1O[C@H](COP(=O)(O)OP(=O)(O)OP(=O)(O)O)[C@@H](O)[C@H]1O` [ATP, adenosine 5′-triphosphate], the kcat (human NPP1 [8]) is listed as 5.51 s⁻¹.

For `COc1cc2ncnc(N3CCC(CCNS(N)(=O)=O)CC3)c2cc1OC` [SAR 03004, N-[2-[1-(6,7-Dimethoxyquinazolin-4-yl)piperidin-4-yl]ethyl]sulfuric diamide], the IC50 (NPP1; ATP as a substrate, ref Patel et al., 2009) is listed as […] and the Inhibition type (human NPP1 [1]) is listed as “Competitive”.

In the case of `Cc1ccc(C(=O)Nc2ccc(S(=O)(=O)O)c3cc(S(=O)(=O)O)cc(S(=O)(=O)O)c23)cc1NC(=O)c1cccc(NC(=O)Nc2cccc(C(=O)Nc3cc(C(=O)Nc4ccc(S(=O)(=O)O)c5cc(S(=O)(=O)O)cc(S(=O)(=O)O)c45)ccc3C)c2)c1` [suramin], the Ki (NPP1) is listed as 0.26 µM.

With `Nc1ncnc2c1ncn2[C@@H]1O[C@H](COP(=O)(O)CP(=O)(O)OP(=O)(O)O)[C@@H](O)[C@H]1O` [α,β-metATP, adenosine 5′-(α,β-methylene)triphosphate] the Inhibition type (human NPP1 [1]) was “Competitive”.

In the case of `Nc1ncnc2c1ncn2[C@@H](C=O)O[C@@H](C=O)COP(=O)(O)OP(=O)(O)OP(=O)(O)O` [dialATP, adenosine 5′-triphosphate-2′,3′-dialdehyde], the “manner of NPP1 inhibition” value (human NPP1 [6]) is listed as “uncompetitive”, the Ki (human NPP1 [1]) is listed as ~5 µM and the Inhibition type (human NPP1 [1]) is listed as “Un-competitive”. The “αKi ± SD, ATP” value (human NPP1 [2]; αKi-value (un-competitive inhibitor), substrate ATP, mean ± SD of three independent experiments) was 6.82 ± 1.01^b μM, the “αKi ± SD, p-Nph-5′-TMP” value (human NPP1 [3]; αKi-value (un-competitive inhibitor), substrate p-Nph-5′-TMP, mean ± SD of three independent experiments) was 4.09 ± 0.41^b μM and the “αKi ± SD, p-Nph-5′-AMP” value (human NPP1 [4]; αKi-value (un-competitive inhibitor), substrate p-Nph-5′-AMP, mean ± SD of three independent experiments) was 5.08 ± 0.33^b μM.

For [TiW11CoO40]^8−, the Inhibition type (human NPP1 [1]) is given as “Non-competitive”, the Ki (human NPP1 [9]) is given as 0.00146 ± 1e-05 µM and the Ki (human NPP1 [3]; [12]) is given as 0.00199 ± 0.00033 µM. For the same molecule, the Ki (human NPP1 [4]; [13]) was 0.00174 ± 0.00099 µM.

For `Nc1ncnc2c1ncn2[C@@H]1O[C@H](COP(=O)(O)CP(=O)(O)O)[C@@H](O)[C@H]1O` [α,β-metADP, adenosine 5′-(α,β-methylene)diphosphate], the Inhibition type (human NPP1 [1]) was “Competitive”, the Ki (human NPP1 [2]) was 16.5 ± 3.1 µM and the Ki (human NPP1 [3]) was 1.28 ± 0.16 µM. The Ki (human NPP1 [4]) was 25.8 ± 4.1 µM.

For `Nc1ncnc2c1ncn2[C@@H]1O[C@H](COP(=O)(O)Oc2ccc([N+](=O)[O-])cc2)[C@@H](O)[C@H]1O` [p-Nph-5′-AMP, p-nitrophenyl 5′-adenosine monophosphate], the “Km-value fold higher than that for ATP” value (human NPP1 [5]; compared to natural substrate ATP) was > 20 fold and the kcat (human NPP1 [5]) was 2.51 s⁻¹.

B1: human NPP1 (Homo sapiens) (protein)
chain: VEEPCESINEPQCPAGFETPPTLLFSLDGFRAEYLHTWGGLLPVISKLKKCGTYTKNMRPVYPTKTFPNHYSIVTGLYPESHGIIDNKMYDPKMNASFSLKSKEKFNPEWYKGEPIWVTAKYQGLKSGTFFWPGSDVEINGIFPDIYKMYNGSVPFEERILAVLQWLQLPKDERPHFYTLYLEEPDSSGHSYGPVSSEVIKALQRVDGMVGMLMDGLKELNLHRCLNLILISDHGMEQGSCKKYIYLNKYLGDVKNIKVIYGPAARLRPSDVPDKYYSFNYEGIARNLSCREPNQHFKPYLKHFLPKRLHFAKSDRIEPLTFYLDPQWQLALNPSERKYCGSGFHGSDNVFSNMQALFVGYGPGFKHGIEADTFENIEVYNLMCDLLNLTPAPNNGTHGSL
notes: Human recombinant soluble NPP1 (Val191—Leu591) expressed in murine myeloma NS0 cells; His-tag (N); purchased R&D Systems GmbH (Wiesbaden, Germany); host or cells: murine myeloma NS0 cells
B1 gave a Km [10] of 188 µM, a kcat [10] of 2.51 s⁻¹ and a kcat/Km [10] of 13400 M⁻¹ s⁻¹. It also gave a Km [11] of 222 µM.
